The source of these data is publication PMC7280144 (Acta Pharmaceutica Sinica. B, 2020).

This data set has as its target T1, ATP-binding cassette subfamily G member 2 (ABCG2) (Homo sapiens, UniProt Q9UNQ0).
T1 sequence (Q9UNQ0 1-655): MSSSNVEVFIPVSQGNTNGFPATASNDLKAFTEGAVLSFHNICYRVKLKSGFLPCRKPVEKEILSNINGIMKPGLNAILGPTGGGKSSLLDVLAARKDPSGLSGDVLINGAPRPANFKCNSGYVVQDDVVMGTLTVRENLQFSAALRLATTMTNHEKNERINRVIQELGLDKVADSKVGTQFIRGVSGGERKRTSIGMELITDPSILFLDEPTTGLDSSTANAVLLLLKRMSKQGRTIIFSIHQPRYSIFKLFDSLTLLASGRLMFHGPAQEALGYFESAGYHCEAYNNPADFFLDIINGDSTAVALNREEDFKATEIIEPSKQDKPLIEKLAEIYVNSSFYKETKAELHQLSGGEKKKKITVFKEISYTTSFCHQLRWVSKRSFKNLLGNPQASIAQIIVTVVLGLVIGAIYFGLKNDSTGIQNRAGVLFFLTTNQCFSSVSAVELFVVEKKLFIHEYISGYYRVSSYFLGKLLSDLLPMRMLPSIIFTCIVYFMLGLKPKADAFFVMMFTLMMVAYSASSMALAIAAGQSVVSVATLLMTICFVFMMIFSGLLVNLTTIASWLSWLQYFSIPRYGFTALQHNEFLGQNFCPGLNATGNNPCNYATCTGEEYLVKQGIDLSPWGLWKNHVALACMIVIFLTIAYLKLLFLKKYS
Put plainly: competition of […]-IAAP photoaffinity labeling in crude membranes.

Regarding `C=CC(=O)Nc1cccc(Nc2nc(Nc3ccc(N4CCN(C(C)=O)CC4)cc3OC)ncc2C(F)(F)F)c1` [rociletinib], the “competition of [125I]-IAAP photoaffinity labeling in crude membranes; also vanad” value is on record as ~ 5 μmol/L.
